Series [1] in a line: Duration of opioid antagonistic activity (general statements). The format is in vivo. As to conditions: intravenously injectable.
The conditions of series [2]: cited from earlier work; for potency relative to naloxone: in vivo.
The conditions of series [3]: plasma of a patient; cited from earlier work.

SMILES strings stand for the structures.

As to `C=C1CC[C@@]2(O)[C@H]3Cc4ccc(O)c5c4[C@@]2(CCN3CC2CC2)[C@H]1O5` [6-methylene-6-desoxy-N-cyclopropylmethyl-14-hydroxydihydronormorphine], the “duration of antagonistic activity” value in series [1] was “at least 6 hours”. Besides, the “potency relative to naloxone” value in series [2] is “significantly more potent”. For the same compound, in series [2] (intravenous route), the “potency as an antagonist relative to naltrexon” value was “about four times more potent”. The “time a pharmacologically active concentration can remain in the plasma” value in series [3] is recorded as “three days”.

As for `O=C1CC[C@@]2(O)[C@H]3Cc4ccc(O)c5c4[C@@]2(CCN3CC2CC2)[C@H]1O5` [naltrexon, reference compound], the “potency relative to naloxone” value in series [2] is listed as “significantly more potent”.

The values above are taken from patent publication EP0236477B1 (priority 1985, dated 1987).
